These results are taken from ChEMBL document CHEMBL1143399, “A small-molecule nitroimidazopyran drug candidate for the treatment of tuberculosis” (Nature, 2000).

Common to all, as to format: functional, organism-based
Conditions in all cases: variant bovis BCG

The subject of experiment [1] is Mycobacterium tuberculosis. Description: Inhibition of nucleic acid synthesis in Mycobacterium bovis BCG.
The subject of experiment [2] is Mycobacterium tuberculosis. In words: Inhibition of protein synthesis in log phase Mycobacterium bovis BCG assessed as [35S] incorporation after 3 hrs.
Experiment [3] relates to Mycobacterium tuberculosis. In words: Inhibition of lipid synthesis in log phase Mycobacterium bovis BCG assessed as [14C] acetate incorporation after 3 hrs by chromatography.

The source made the active and inactive calls. The calls are words filed in the database; no cut-off is given here.

As for `O=[N+]([O-])c1cn2c(n1)OC[C@@H](OCc1ccc(OC(F)(F)F)cc1)C2` [PRETOMANID], the result in experiment [1] and in experiment [3] was inactive. In addition, the result in experiment [2] was Active.
